This is an account of results in PubChem BioAssay (NCI).

Each structure is given as a SMILES string.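 All cell lines were grown in 96-well plates and treated with compound for 48 hours. GI50 marks 50% less growth. TGI denotes the concentration required for complete inhibition of growth.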

What all share (assay): NCI tumour cell line growth inhibition, 48 h
Assay [1] concerns T-47D breast.
In assay [2] the test system is BT-549 breast.
Assay [3] relates to DU-145 prostate.
Assay [4] deals with NCI/ADR-RES ovarian.
Assay [5] relates to MDA-MB-435.

On to `COc1ccc(-c2ccc(=O)oc2-c2cc(OC)c(OC)c(OC)c2)cc1O`, for which the GI50 in assay [1] is over 100 µM; in assay [2], 0.0919 µM; in assay [3], 0.0297 µM; in assay [4] it was 0.036 µM. For the same compound, the TGI in assay [1], in assay [2] and in assay [4] was over 100 µM each time.
As to `COc1cccc(NC(=O)c2ccc(C(F)(F)F)nc2Nc2ccc(Cl)cc2C)c1`, the GI50 is 4.31 µM in assay [1]; 12.1 µM in assay [5]; 14.1 µM in assay [2]; 15 µM in assay [3]; 5.6 µM in assay [4]. Besides, the TGI in assay [1] is 25.1 µM; in assay [5] it was 27.2 µM; in assay [2] it was 28.4 µM; in assay [3] it was 28.3 µM; in assay [4] it was 20.2 µM.
Take `CCCN(CCC)c1ccc(C=O)c(OC)c1`: the GI50 was 12.5 µM in assay [1]; 20 µM in assay [5]; 22 µM in assay [2]; 26.6 µM in assay [3]; 28.9 µM in assay [4]. For the same compound, the TGI in assay [1] is 57.5 µM; in assay [5], 78.9 µM; in assay [2], 80.2 µM; in assay [3], over 100 µM; in assay [4], over 100 µM.
As to `COc1cc(/C=C\c2cc(/C=C\c3ccc(O)c(OC)c3)n(C(=O)Nc3ccc(C(F)(F)F)cc3)n2)ccc1O`, the GI50 in assay [1] is 2.81 µM; in assay [5], 2.35 µM; in assay [2] it was 1.96 µM; in assay [3], 3.67 µM; in assay [4] it was 3.51 µM. For the same compound, the TGI in assay [1] is 39 µM; in assay [5] it was 7.06 µM; in assay [2] it was 3.67 µM; in assay [3], 13 µM; in assay [4], over 100 µM.
With `O=C1c2ccccc2C(=O)c2c1c(NCCNCCO)c1cc[nH]c1c2NCCNCCO`, the GI50 in assay [1] is 11.8 µM; in assay [5], 3.03 µM; in assay [2], 2.75 µM; in assay [3], 3.31 µM; in assay [4], over 100 µM. For the same compound, the TGI in assay [1] is over 46.5 µM; in assay [5], 11.9 µM; in assay [2] it was 8.94 µM; in assay [3], over 59 µM; in assay [4], over 100 µM.
Turning to `Cn1c(-c2c(N)n(Cc3ccc(Cl)cc3)c3nc(C#N)c(C#N)nc23)nc2ccccc21`, the GI50 in assay [1] is 1.83 µM; in assay [5], 7.63 µM; in assay [2], 6.44 µM; in assay [3], 5.94 µM; in assay [4] it was 2.36 µM. Moreover, the TGI in assay [1] is 14.5 µM; in assay [5], over 50 µM; in assay [2] it was 15.6 µM; in assay [3], 17.4 µM; in assay [4] it was 10.8 µM.
Turning to `Cc1cc(Cl)ccc1OCC(=O)Oc1c(Cl)c(Cl)c(Cl)c(Cl)c1Cl`, the TGI in assay [5] was 68.9 µM; in assay [2], over 100 µM; in assay [3], 49.2 µM; in assay [4] it was 67.6 µM.
Regarding `CC(C)C(OC(=O)c1cc(NC(=S)c2ccccc2)ccc1Cl)C(C)C`, the TGI is 29.5 µM in assay [1]; over 100 µM in assay [5]; 91.1 µM in assay [2]; over 100 µM in assay [3]; over 100 µM in assay [4].
Take `CN(C)c1ccc2c(SCC(=O)OCC(=O)[C@@]3(O)CC[C@H]4[C@@H]5CCC6=CC(=O)C=C[C@]6(C)[C@H]5C(=O)C[C@@]43C)c3ccc(N(C)C)cc3nc2c1`: the TGI was over 100 µM in assay [1], over 72.1 µM in assay [5], over 49.5 µM in assay [2] and 58.2 µM in assay [3].
Take `COc1cc([N+](=O)[O-])c(S(=O)(=O)O)cc1-n1nc(-c2ccccc2)n[n+]1-c1cc(S(=O)(=O)[O-])c([N+](=O)[O-])cc1OC`: the TGI in assay [1], in assay [5], in assay [3] and in assay [4] was over 100 µM in each case.
On to `S=C1SC2(CCCCCC2)NC2=C1CCCCC2`, for which the TGI in assay [1], in assay [5], in assay [3] and in assay [4] was over 100 µM in each case.
For the compound `CC(=O)c1ccc(NCn2nc(-c3ccccc3O)oc2=S)cc1`, the GI50 is 85.9 µM in assay [1], over 100 µM in assay [5], 56.2 µM in assay [2] and over 100 µM in assay [4]. For the same compound, the TGI in assay [1], in assay [5], in assay [2] and in assay [4] was over 100 µM throughout.
Turning to `COc1ncnc2c1ncn2C/C(Br)=C(\Br)CCl`, the GI50 in assay [1] is 2.37 µM; in assay [5], 2.94 µM; in assay [3], 5.31 µM; in assay [4], 6.12 µM. Further, the TGI in assay [1] was determined as 6.84 µM; in assay [5], 11.5 µM; in assay [3], 18.2 µM; in assay [4], 18.9 µM.
Turning to `O=c1cc(-c2ccccc2)oc2cc(OCc3cn(Cc4ccc(F)cc4)nn3)cc(O)c12`, the GI50 is 7.98 µM in assay [2], over 100 µM in assay [3] and 5.57 µM in assay [4]. Also, the TGI in assay [2], in assay [3] and in assay [4] was over 100 µM throughout.
